# How the values were obtained:
# [1] = Solubility of candesartan cilexetil in water from solid state emulsion systems, room temperature; format: physicochemical; details: thermodynamic from solid, sample weight 50 mg in 100 ml
# Method: (§1) The solubility of candesartan cilexetil in water was studied at room temperature. Water dispersion (100 ml) of the sample in the laboratory beaker was mixed on the magnetic stirrer for 60 minutes. Afterwards, the part of the dispersion was taken from the beaker, filtered through the 0.45 μm filter and the concentration of candesartan cilexetil was determined by HPLC.
# [2] = cited from earlier work
# [3] = Stability of micronized vs unmicronised candesartan cilexetil at 40° C. and 75% humidity (impurities); format: physicochemical
# Method: This approach is not appropriate for candesartan cilexetil, because any mechanical stress applied to the crystals of candesartan cilexetil leads to deterioration of the crystal structure and/or partial or complete (if mechanical stress is long enough) amorphisation, resulting in decreased stability. For example, when micronized candesartan cilexetil with d(0.9)=5 μm is subjected to 40° C. and 75% humidity for 1 month the impurities changed from 0.33% to 0.85%, compared to 0.19% and 0.10% for the unmicronised sample.
# [4] = Solubility of celecoxib in water from solid state emulsion systems; format: physicochemical; details: thermodynamic from solid, sample weight 100 mg, ultrasound
# Method: as §1
# The solubility of celecoxib in water was determined with the same procedure as described in Example 7.
# [5] = after 40° C. and 75% humidity for 1 month
Structure (SMILES),"impurities [3, 5]","impurities ([3]; initial, before storage)",also measured
CCOc1nc2cccc(C(=O)OC(C)OC(=O)OC3CCCCC3)c2n1Cc1ccc(-c2ccccc2-c2nnn[nH]2)cc1 (centres unmarked) [Candesartan cilexetil],,,"solubility at 60 min [1]: < 0.1 µg/mL; solubility in phosphate buffer ([2]; phosphate buffer pH=7.0, at 37° C.): less than 0.2 μg/ml; water solubility ([2]; water, at 37° C.): 0.5 µg/mL"
"CCOc1nc2cccc(C(=O)OC(C)OC(=O)OC3CCCCC3)c2n1Cc1ccc(-c2ccccc2-c2nnn[nH]2)cc1 (centres unmarked) [micronized candesartan cilexetil, candesartan cilexetil]",0.85%,0.33%,
"Cc1ccc(-c2cc(C(F)(F)F)nn2-c2ccc(S(N)(=O)=O)cc2)cc1 [Celecoxib, 4-[5-(4-methylphenyl)-3-(trifluoromethyl)pyrazol-1-yl]benzenesulfonamide]",,,solubility at 60 min [4]: 0.3 µg/mL
"CCOc1nc2cccc(C(=O)OC(C)OC(=O)OC3CCCCC3)c2n1Cc1ccc(-c2ccccc2-c2nnn[nH]2)cc1 (centres unmarked) [unmicronised sample, candesartan cilexetil]",0.10%,0.19%,
